Consider 26 molecules from patent US8153809B2, “Dihydropyridone ureas as P2X7 modulators” (Roche Palo Alto LLC, priority 2008, dated 2012).

The target in this assay is T1, P2X7 (UniProt Q99572).
T1 sequence (Q99572 1-595): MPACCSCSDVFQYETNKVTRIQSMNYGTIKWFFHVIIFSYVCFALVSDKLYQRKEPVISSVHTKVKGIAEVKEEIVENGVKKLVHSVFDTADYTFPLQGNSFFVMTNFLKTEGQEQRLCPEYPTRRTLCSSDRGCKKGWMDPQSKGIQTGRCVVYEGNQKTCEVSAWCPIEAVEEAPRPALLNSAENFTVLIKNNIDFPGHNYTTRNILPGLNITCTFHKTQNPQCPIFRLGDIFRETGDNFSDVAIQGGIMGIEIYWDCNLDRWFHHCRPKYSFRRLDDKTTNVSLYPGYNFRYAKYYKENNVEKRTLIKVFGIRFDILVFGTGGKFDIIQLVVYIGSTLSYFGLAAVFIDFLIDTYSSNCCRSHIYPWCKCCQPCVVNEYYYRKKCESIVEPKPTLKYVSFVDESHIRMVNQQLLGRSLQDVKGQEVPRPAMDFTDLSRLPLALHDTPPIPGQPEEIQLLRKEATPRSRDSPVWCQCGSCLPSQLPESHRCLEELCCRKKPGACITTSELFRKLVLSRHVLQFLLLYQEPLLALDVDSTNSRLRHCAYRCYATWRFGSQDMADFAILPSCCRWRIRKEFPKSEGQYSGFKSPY
Kind of assay: pIC50 values for P2X7 (Table 1). The class given is cell-based. As for the experimental part:
Intracellular Calcium Flux (FLIPR) Assay
Compound and Reagent Preparation
Stock solutions of compounds were prepared from powders as a 10 mM DMSO stock solution. These solutions were stored at RT during the two week period of these experiments to prevent freeze-thaw of the DMSO stocks. The DMSO stocks were added to the appropriate assay buffer at a concentration of 10 μM, and then diluted serially to the final concentrations that were tested. […] The aqueous solutions of compounds as well as ATP (Sigma A7699) and BzATP (Sigma B6396) were prepared fresh for each day of experiment.
1321N1 cells stably expressing the full length human P2X7 gene (1321N1-hP2X7) and HEK293 cells stably expressing the full length rat P2X7 gene (HEK293-rP2X7) were obtained from the Roche Cell Culture Facility. 1321N1-hP2X7 cells were grown in Dulbecco's Modified Eagle's Medium (DMEM) high glucose supplemented with 10% FBS and 250 μg/mL G418. HEK293-rP2X7 cells were grown in DMEM/F-12 supplemented with 10% FBS, 1 mM CaCl2, 2 mM MgCl2, 2 mM L-Glutamine and 500 μg/ml G418. Cells were split such that they never became >70% confluent.
Intracellular Calcium Flux (FLIPR)
On the day prior to the experiment, 1321N1-hP2X7 or HEK293-rP2X7 cells were released into suspension with calcium-free PBS+Versene and washed by centrifugation with calcium-free PBS to remove the Versene.
On the day of the experiment, plates were washed with FLIPR buffer (calcium- and magnesium-free Hank's Balanced Salt Solution (HBSS) supplemented with 10 mM Hepes, 2.5 mM probenecid and 2 mM calcium chloride) using a BIO-TEK 96 channel plate washer and incubated with […] fluo-3 dye at 37° C. for one hr. The dye was then removed by plate washing and the cells were allowed to equilibrate for 20 min at room temperature with antagonist or vehicle (FLIPR buffer). Agonist (100 μM BzATP final concentration for hP2X7; 5 μM BzATP final concentration or rP2X7) was added online with the FLIPR and fluorescence measurements made at 1 sec intervals for 60 sec followed by 3 sec intervals for a further 4 min (5 min total). A final addition of 5 μM ionomycin was made and the maximal BzATP-evoked fluorescence normalized to the maximal ionomycin-evoked fluorescence.
The molecule `COc1cc(NC(=O)N2C=CC(=O)C[C@H]2c2ccc(F)cc2)c(Br)cc1C(=O)OC(C)(C)C` [Compound 55, 5-Bromo-4-{[(S)-2-(4-fluoro-phenyl)-4-oxo-3,4-dihydro-2H-pyridine-1-carbonyl]-amino}-2-methoxy-benzoic acid tert-butyl ester] yielded a pIC50 of 5.845.
In turn, `COc1ccc(Br)c(NC(=O)N2C=CC(=O)C[C@H]2c2ccc(F)cc2)c1` [Compound 96, (S)-2-(4-Fluoro-phenyl)-4-oxo-3,4-dihydro-2H-pyridine-1-carboxylic acid (2-bromo-5-methoxy-phenyl)-amide] yielded a pIC50 of 7.875.
Turning to `Cc1cc(Cl)c(OC2CCNCC2)cc1NC(=O)N1C=CC(=O)C[C@H]1c1ccc(F)cc1` [Compound 142, (S)-2-(4-Fluoro-phenyl)-4-oxo-3,4-dihydro-2H-pyridine-1-carboxylic acid [4-chloro-2-methyl-5-(piperidin-4-yloxy)-phenyl]-amide], the pIC50 was determined as 6.71.
With `COc1ccc(OC)c(NC(=O)N2C=CC(=O)CC2c2ccc(F)cc2)c1` (centres unmarked) [Compound 65, 2-(4-Fluoro-phenyl)-4-oxo-3,4-dihydro-2H-pyridine-1-carboxylic acid (2,5-dimethoxy-phenyl)-amide], the negative logarithm of the IC50 (pIC50) came to 6.23.
As for `COc1cc(NC(=O)N2C=CC(=O)CC2c2ccc(F)c(F)c2)c(Br)cc1C` (centres unmarked) [Compound 44, 2-(3,4-Difluoro-phenyl)-4-oxo-3,4-dihydro-2H-pyridine-1-carboxylic acid (2-bromo-5-methoxy-4-methyl-phenyl)-amide], the pIC50 was 7.383.
Next, `O=C1C=CN(C(=O)Nc2cc(C(F)(F)F)c(Cl)cc2Br)[C@H](c2ccc(F)cc2)C1` [Compound 11, (S)-2-(4-Fluoro-phenyl)-4-oxo-3,4-dihydro-2H-pyridine-1-carboxylic acid (2-bromo-4-chloro-5-trifluoromethyl-phenyl)-amide]: 6.015.
Next, `Cc1ccccc1NC(=O)N1C=CC(=O)C[C@H]1c1ccc(F)cc1` [Compound 131, (S)-2-(4-Fluoro-phenyl)-4-oxo-3,4-dihydro-2H-pyridine-1-carbxoylic acid o-tolylamide]: 7.53.
Next, `Cc1cc(C)cc(NC(=O)N2C=CC(=O)C[C@H]2c2ccc(F)cc2)c1` [Compound 104, (S)-2-(4-Fluoro-phenyl)-4-oxo-3,4-dihydro-2H-pyridine-1-carboxylic acid (3,5-dimethyl-phenyl)-amide]: 7.655; `Cn1cc2ccc(NC(=O)N3C=CC(=O)C[C@H]3c3cccc(F)c3)cc2n1` [Compound 147, (S)-2-(3-Fluoro-phenyl)-4-oxo-3,4-dihydro-2H-pyridine-1-carbxoylic acid (2-methyl-2H-indazol-6-yl)-amide]: 5.505; `O=C1C=CN(C(=O)Nc2cc3c(cc2Br)OCO3)C(c2ccc(F)cc2)C1` (centres unmarked) [Compound 37]: 7.457.
The molecule `O=C1C=CN(C(=O)Nc2c(F)cc(F)cc2Br)C(c2ccc(F)cc2)C1` (centres unmarked) [Compound 85, 2-(4-Fluoro-phenyl)-4-oxo-3,4-dihydro-2H-pyridine-1-carboxylic acid (2-bromo-4,6-difluoro-phenyl)-amide] displayed a pIC50 of 5.
Regarding `COc1cc(NC(=O)N2C=CC(=O)C[C@H]2c2cc(F)cc(F)c2)c(Br)cc1C` [Compound 78, (S)-2-(3,5-Difluoro-phenyl)-4-oxo-3,4-dihydro-2H-pyridine-1-carboxylic acid (2-bromo-5-methoxy-4-methyl-phenyl)-amide], the pIC50 came out at 7.675.
Next, `O=C1C=CN(C(=O)Nc2ccccc2)[C@H](c2ccc(F)cc2)C1` [Compound 126, (S)-2-(4-Fluoro-phenyl)-4-oxo-3,4-dihydro-2H-pyridine-1-carboxylic acid phenylamide]: 6.18; `CCc1c(NC(=O)N2C=CC(=O)C[C@H]2c2ccc(F)cc2)ccc2ncccc12` [Compound 149, (S)-2-(4-Fluoro-phenyl)-4-oxo-3,4-dihydro-2H-pyridine-1-carboxylic acid (5-ethyl-quinolin-6-yl)-amide]: 8.445.
In the case of `O=C1C=CN(C(=O)Nc2ccc3c(c2)NC(=O)C3)[C@H](c2ccc(F)cc2)C1` [Compound 134, (S)-2-(4-Fluoro-phenyl)-4-oxo-3,4-dihydro-2H-pyridine-1-carboxylic acid (2-oxo-2,3-dihydro-1H-indol-6-yl)-amide], the pIC50 stood at 5.385.
`COc1ccc(NC(=O)N2C=CC(=O)CC2c2ccc(F)cc2)c(OC)c1` (centres unmarked) [Compound 69, 2-(4-Fluoro-phenyl)-4-oxo-3,4-dihydro-2H-pyridine-1-carboxylic acid (2,4-dimethoxy-phenyl)-amide]: the pIC50 is listed as 6.07.
`O=C1C=CN(C(=O)Nc2cc3c(cc2Br)OCCO3)[C@H](c2ccc(F)cc2)C1` [Compound 136, (S)-2-(4-Fluoro-phenyl)-4-oxo-3,4-dihydro-2H-pyridine-1-carboxylic acid (7-bromo-2,3-dihydro-benzo[1,4]dioxin-6-yl)-amide] registered a pIC50 of 8.095.
The result for `O=C1C=CN(C(=O)Nc2c(F)cccc2F)C(c2ccc(F)cc2)C1` (centres unmarked) [Compound 62, 2-(4-Fluoro-phenyl)-4-oxo-3,4-dihydro-2H-pyridine-1-carboxylic acid (2,6-difluoro-phenyl)-amide] reads 5.51; that for `COc1cc(Br)c(NC(=O)N2C=CC(=O)CC2c2ccccc2)cc1OC` (centres unmarked) [Compound 1, 4-Oxo-2-phenyl-3,4-dihydro-2H-pyridine-1-carboxylic acid (2-bromo-4,5-dimethoxy-phenyl)-amide], 7.408; that for `Cc1cc(Br)c(NC(=O)N2C=CC(=O)C[C@H]2c2ccc(F)cc2)cc1C(=O)OC(C)(C)C` [Compound 77, 4-Bromo-5-{[(S)-2-(4-fluoro-phenyl)-4-oxo-3,4-dihydro-2H-pyridine-1-carbonyl]amino}-2-methyl-benzoic acid tert-butyl ester], 6.67.
The molecule `COc1cc(C)c(NC(=O)N2C=CC(=O)C[C@H]2c2ccc(F)cc2)cc1OC` [Compound 26, (S)-2-(4-Fluoro-phenyl)-4-oxo-3,4-dihydro-2H-pyridine-1-carboxylic acid (4,5-dimethoxy-2-methyl-phenyl)-amide] showed a pIC50 of 7.93.
The result for `COc1cc(NC(=O)N2C=CC(=O)C[C@H]2c2ccc(F)cc2)ccc1C` [Compound 45, (S)-2-(4-Fluoro-phenyl)-4-oxo-3,4-dihydro-2H-pyridine-1-carboxylic acid (3-methoxy-4-methyl-phenyl)-amide] reads 6.737; that for `COc1cc(NC(=O)N2C=CC(=O)C[C@H]2c2ccc(F)cc2)c(Br)cc1C` [Compound 12, (S)-2-(4-Fluoro-phenyl)-4-oxo-3,4-dihydro-2H-pyridine-1-carboxylic acid (2-bromo-5-methoxy-4-methyl-phenyl)-amide], 7.873.
The result for `Cc1cc2ccn(CCO)c2cc1NC(=O)N1C=CC(=O)C[C@H]1c1ccc(F)cc1` [Compound 156, (S)-2-(4-Fluoro-phenyl)-4-oxo-3,4-dihydro-2H-pyridine-1-carboxylic acid [1-(2-hydroxy-ethyl)-5-methyl-1H-indol-6-yl]-amide] reads 8.155.
The molecule `Cc1cc2cc(NC(=O)N3C=CC(=O)CC3c3ccc(F)cc3)ccc2o1` (centres unmarked) [Compound 91, 2-(4-Fluoro-phenyl)-4-oxo-3,4-dihydro-2H-pyridine-1-carboxylic acid (2-methyl-benzofuran-5-yl)-amide] yielded a pIC50 of 6.315.
Take `COc1cc(NC(=O)N2C=CC(=O)C[C@@H]2c2ccc(F)c(F)c2)c(Br)cc1C` [Compound 82, (R)-2-(3,4-Difluoro-phenyl)-4-oxo-3,4-dihydro-2H-pyridine-1-carboxylic acid (2-bromo-5-methoxy-4-methyl-phenyl)-amide]: the pIC50 worked out at 5.31.
